Data taken from patent US20110086916A1, “INTERVAL THERAPY FOR THE TREATMENT OF TINNITUS” (MERZ PHARMA GmbH & CO. KGaA, priority 2007, published 2011).

System: subjects with subjective tinnitus of at least moderate severity
Test: Double blind placebo controlled pilot trial of neramexane for treatment of tinnitus (TBF-12 score)
Type: in vivo, human
Settings: for Change in the TBF-12 total score from baseline, Change LSMean: ANCOVA
Experimental: Visit 1 (screening): After signing the consent form, the subject underwent a physical examination and clinical laboratory testing. Patient eligibility for the study was evaluated via a check of inclusion/exclusion criteria. An initial Tinnitus Interview was conducted. The subject also completed a Tinnitus-Beeinträchtigungs-Fragebogen (TBF-12) (i.e., a 12-item German modified and validated version (Greimel K V et al., Tinnitus-Beeinträchtigungs-Fragebogen (TBF-12). Manual. Frankfurt am Main: Swets & Zeitlinger B.V.; 2000) of the 25-item Tinnitus Handicap Inventory or THI (Newman C W, et al. Development of the Tinnitus Handicap Inventory. Arch Otolaryngol Head Neck Surg 1996; 122(2): 143-148; Newman C W, et al. Psychometric adequacy of the Tinnitus Handicap Inventory (THI) for evaluating treatment outcome. J Am Acad Audiol 1998; 9(2): 153-160.)), a Hospital Anxiety and Depression Scale—Depression Subscale (HADS-D) Questionnaire and a Hyperacusis (Geräuschüberempfindlichkeit-Fragenbogen (GÜF)) Questionnaire (if applicable).
Visit 2 (baseline): The subject was asked about adverse events and changes in concomitant medication/disease, which events/changes were documented. The subject was evaluated for study eligibility based on a review of the inclusion/exclusion criteria. Trial procedures as well as allowed and forbidden concomitant medications were reviewed with the subject. An initial Tinnitus Interview was conducted. The subject also completed a TBF-12, HADS-D Questionnaire and GÜF Questionnaire (if applicable). The subject was enrolled in the study and study medication (placebo or neramexane) was dispensed as described below.
Visit 3 (Week 4): This visit occurred at the end of the 4-week up-titration sequence. The subject was asked about adverse events and changes in concomitant medication/disease, which events/changes were documented. A follow-up Tinnitus Interview was conducted. The subject also completed a TBF-12, HADS-D Questionnaire and GÜF Questionnaire (if applicable). Medication compliance was assessed, and medication for the next 4 weeks was dispensed as described below.
(§1) Visit 4 (Week 8): This visit occurred at the end of the first 4-week fixed-dose double-blind treatment period. The subject was asked about adverse events and changes in concomitant medication/disease, which changes are documented. Blood samples were collected in order to determine neramexane pre-dose concentration. A follow-up Tinnitus Interview was conducted. The subject also completed a TBF-12, HADS-D Questionnaire and GÜF Questionnaire (if applicable). Medication compliance was assessed and, medication for the next 4 weeks was dispensed as described below.
as §1, with “Visit 5” for “Visit 4”, “(Week 12):” for “(Week 8):”, “the second” for “the first”, “documented.” for “documented. Blood samples were collected in order to determine neramexane pre-dose concentration.”
Visit 6 (Week 16, end of treatment): This visit occurred at the end of the 12-week fixed-dose double-blind treatment period. The subject was asked about adverse events and changes in concomitant medication/disease, which changes are documented. A clinical laboratory evaluation was performed. A follow-up Tinnitus Interview was conducted, and the subject completed a TBF-12, HADS-D Questionnaire and GÜF Questionnaire (if applicable). Pure-tone audiometry (air conduction) was also conducted.
Visit 7 (Week 20): This visit occurred at the end of the 4-week follow-up period after the last study medication dose. Review of concomitant medications as well as the occurrence of adverse events since the last visit is conducted with subject. […]

[1] = 25 mg/d, Week 4, ITT-LOCF, n=106
[2] = 25 mg/d, Week 8, ITT-LOCF, n=106
[3] = 25 mg/d, Week 12, ITT-LOCF, n=106
[4] = 25 mg/d, Week 16 (end of treatment), ITT-LOCF, n=106
[5] = 25 mg/d, Week 20 (Follow-up, 4 weeks without treatment), ITT-LOCF, n=100
[6] = 50 mg/d, Week 4, ITT-LOCF, n=106
[7] = 50 mg/d, Week 8, ITT-LOCF, n=106
[8] = 50 mg/d, Week 12, ITT-LOCF, n=106
[9] = 50 mg/d, Week 16 (end of treatment), ITT-LOCF, n=106
[10] = 50 mg/d, Week 20 (Follow-up, 4 weeks without treatment), ITT-LOCF, n=95
[11] = 75 mg/d, Week 4, ITT-LOCF, n=99
[12] = 75 mg/d, Week 8, ITT-LOCF, n=99
[13] = 75 mg/d, Week 12, ITT-LOCF, n=99
[14] = 75 mg/d, Week 16 (end of treatment), ITT-LOCF, n=99
[15] = 75 mg/d, Week 20 (Follow-up, 4 weeks without treatment), ITT-LOCF, n=89

SMILES: CC1(C)CC(C)(C)CC(C)(N)C1 [Neramexane, 1-amino-1,3,3,5,5-pentamethylcyclohexane]
- Change in the TBF-12 total score from baseline, Change LSMean (25 mg/d, Week 4, ITT-LOCF): −0.8
- Change in the TBF-12 total score from baseline, Change Mean ± SD [1]: −1.0 ± 2.6
- TBF-12 total score, Actual Mean ± SD [1]: 13.4 ± 4.5
- Change in TBF-12 total score, Neramexane - Placebo LSMean Diff. ± SE (25 mg/d, Week 4, ITT-LOCF, 95% CI [−0.8, 0.7], p-value 0.875): −0.1 ± 0.4
- Change in the TBF-12 total score from baseline, Change LSMean (25 mg/d, Week 8, ITT-LOCF): −1.5
- Change in the TBF-12 total score from baseline, Change Mean ± SD [2]: −1.7 ± 2.9
- TBF-12 total score, Actual Mean ± SD [2]: 12.7 ± 4.9
- Change in TBF-12 total score, Neramexane - Placebo LSMean Diff. ± SE (25 mg/d, Week 8, ITT-LOCF, 95% CI [−0.5, 1.2], p-value 0.429): 0.3 ± 0.4
- Change in the TBF-12 total score from baseline, Change LSMean (25 mg/d, Week 12, ITT-LOCF): −1.4
- Change in the TBF-12 total score from baseline, Change Mean ± SD [3]: −1.6 ± 3.4
- TBF-12 total score, Actual Mean ± SD [3]: 12.8 ± 5.0
- Change in TBF-12 total score, Neramexane - Placebo LSMean Diff. ± SE (25 mg/d, Week 12, ITT-LOCF, 95% CI [−0.3, 1.6], p-value 0.182): 0.6 ± 0.5
- Change in the TBF-12 total score from baseline, Change LSMean (25 mg/d, Week 16 (end of treatment), ITT-LOCF): −1.8
- Change in the TBF-12 total score from baseline, Change Mean ± SD [4]: −2.0 ± 3.4
- TBF-12 total score, Actual Mean ± SD [4]: 12.4 ± 5.3
- Change in TBF-12 total score, Neramexane - Placebo LSMean Diff. ± SE (25 mg/d, Week 16 (end of treatment), ITT-LOCF, 95% CI [−0.5, 1.5], p-value 0.359): 0.5 ± 0.5
- Change in TBF-12 total score, Neramexane - Placebo LSMean Diff. ± SE (25 mg/d, Week 20 (Follow-up), ITT-LOCF, 95% CI [−0.6, 1.6], p-value 0.336): 0.5 ± 0.6
- Change in the TBF-12 total score from baseline, Change LSMean (25 mg/d, Week 20 (Follow-up, 4 weeks without treatment), ITT-LOCF): −2.0
- Change in the TBF-12 total score from baseline, Change Mean ± SD [5]: −2.1 ± 3.4
- TBF-12 total score, Actual Mean ± SD [5]: 12.3 ± 5.5
- Change in the TBF-12 total score from baseline, Change LSMean (50 mg/d, Week 4, ITT-LOCF): −1.4
- Change in the TBF-12 total score from baseline, Change Mean ± SD [6]: −1.4 ± 3.2
- TBF-12 total score, Actual Mean ± SD [6]: 13.0 ± 4.7
- Change in TBF-12 total score, Neramexane - Placebo LSMean Diff. ± SE (50 mg/d, Week 4, ITT-LOCF, 95% CI [−1.3, 0.1], p-value 0.110): −0.6 ± 0.4
- Change in the TBF-12 total score from baseline, Change LSMean (50 mg/d, Week 8, ITT-LOCF): −2.1
- Change in the TBF-12 total score from baseline, Change Mean ± SD [7]: −2.2 ± 3.3
- TBF-12 total score, Actual Mean ± SD [7]: 12.3 ± 4.8
- Change in TBF-12 total score, Neramexane - Placebo LSMean Diff. ± SE (50 mg/d, Week 8, ITT-LOCF, 95% CI [−1.1, 0.5], p-value 0.488): −0.3 ± 0.4
- Change in the TBF-12 total score from baseline, Change LSMean (50 mg/d, Week 12, ITT-LOCF): −2.5
- Change in the TBF-12 total score from baseline, Change Mean ± SD [8]: −2.6 ± 3.8
- TBF-12 total score, Actual Mean ± SD [8]: 11.8 ± 4.9
- Change in TBF-12 total score, Neramexane - Placebo LSMean Diff. ± SE (50 mg/d, Week 12, ITT-LOCF, 95% CI [−1.4, 0.5], p-value 0.357): −0.4 ± 0.5
- Change in the TBF-12 total score from baseline, Change LSMean (50 mg/d, Week 16 (end of treatment), ITT-LOCF): −3.1
- Change in the TBF-12 total score from baseline, Change Mean ± SD [9]: −3.2 ± 4.1
- TBF-12 total score, Actual Mean ± SD [9]: 11.2 ± 5.1
- Change in TBF-12 total score, Neramexane - Placebo LSMean Diff. ± SE (50 mg/d, Week 16 (end of treatment), ITT-LOCF, 95% CI [−1.8, 0.2], p-value 0.098): −0.8 ± 0.5
- Change in TBF-12 total score, Neramexane - Placebo LSMean Diff. ± SE (50 mg/d, Week 20 (Follow-up), ITT-LOCF, 95% CI [−2.4, −0.2], p-value 0.021): −1.3 ± 0.6
- Change in the TBF-12 total score from baseline, Change LSMean (50 mg/d, Week 20 (Follow-up, 4 weeks without treatment), ITT-LOCF): −3.8
- Change in the TBF-12 total score from baseline, Change Mean ± SD [10]: −3.9 ± 4.4
- TBF-12 total score, Actual Mean ± SD [10]: 10.4 ± 5.3
- Change in the TBF-12 total score from baseline, Change LSMean (75 mg/d, Week 4, ITT-LOCF): −1.6
- Change in the TBF-12 total score from baseline, Change Mean ± SD [11]: −1.7 ± 2.7
- TBF-12 total score, Actual Mean ± SD [11]: 12.2 ± 4.3
- Change in TBF-12 total score, Neramexane - Placebo LSMean Diff. ± SE (75 mg/d, Week 4, ITT-LOCF, 95% CI [−1.6, −0.1], p-value 0.026): −0.9 ± 0.4
- Change in the TBF-12 total score from baseline, Change LSMean (75 mg/d, Week 8, ITT-LOCF): −1.9
- Change in the TBF-12 total score from baseline, Change Mean ± SD [12]: −2.0 ± 3.3
- TBF-12 total score, Actual Mean ± SD [12]: 11.9 ± 4.5
- Change in TBF-12 total score, Neramexane - Placebo LSMean Diff. ± SE (75 mg/d, Week 8, ITT-LOCF, 95% CI [−1.0, 0.7], p-value 0.813): −0.1 ± 0.4
- Change in the TBF-12 total score from baseline, Change LSMean (75 mg/d, Week 12, ITT-LOCF): −2.4
- Change in the TBF-12 total score from baseline, Change Mean ± SD [13]: −2.5 ± 3.5
- TBF-12 total score, Actual Mean ± SD [13]: 11.4 ± 4.9
- Change in TBF-12 total score, Neramexane - Placebo LSMean Diff. ± SE (75 mg/d, Week 12, ITT-LOCF, 95% CI [−1.3, 0.6], p-value 0.457): −0.4 ± 0.5
- Change in the TBF-12 total score from baseline, Change LSMean (75 mg/d, Week 16 (end of treatment), ITT-LOCF): −2.8
- Change in the TBF-12 total score from baseline, Change Mean ± SD [14]: −2.9 ± 3.9
- TBF-12 total score, Actual Mean ± SD [14]: 11.0 ± 5.1
- Change in TBF-12 total score, Neramexane - Placebo LSMean Diff. ± SE (75 mg/d, Week 16 (end of treatment), ITT-LOCF, 95% CI [−1.6, 0.5], p-value 0.289): −0.5 ± 0.5
- Change in TBF-12 total score, Neramexane - Placebo LSMean Diff. ± SE (75 mg/d, Week 20 (Follow-up), ITT-LOCF, 95% CI [−1.8, 0.5], p-value 0.244): −0.7 ± 0.6
- Change in the TBF-12 total score from baseline, Change LSMean (75 mg/d, Week 20 (Follow-up, 4 weeks without treatment), ITT-LOCF): −3.2
- Change in the TBF-12 total score from baseline, Change Mean ± SD [15]: −3.3 ± 3.6
- TBF-12 total score, Actual Mean ± SD [15]: 10.5 ± 4.9
- Capability for improvement of tinnitus after withdrawal (conclusion of pilot trial) (after drug withdrawal): sustained improvement of tinnitus even after the drug is withdrawn
- Further improvement of tinnitus during 4-week wash-out period without any medication (subjects who had received low-dose (25 mg)): not reported

SMILES: CC1(C)CC(C)(C)CC(C)(N)C1.CS(=O)(=O)O [neramexane mesylate]
- Improvement of tinnitus as measured by the TBF-12 (after 16-week double-blind treatment (Visit 6), final daily doses of 50 or 75 mg, distinct from placebo or low-dose (25 mg) groups): clear improvement of their tinnitus
- Differences in TBF-12 improvement between the 50 mg and the placebo group (end of the 4-week wash-out (Week 20, Visit 7), 50 mg): reached statistical significance
- Improvement of tinnitus during 4-week wash-out period without any medication (subjects previously treated with either 50 or 75 mg): further relevant improvement of their tinnitus
